Laboratory results taken from US8242126B2, “Quinazolinedione derivatives, preparation thereof and therapeutic uses thereof” (Sanofi, priority 2007, dated 2012).
Like-named read-outs stand apart in the source and are kept apart here.

Assays:
Human PDE7 = biological target: T1, Human PDE7 (Homo sapiens, UniProt Q13946); assay: PDE7 enzymatic assay (radioactive cAMP / 5′-AMP separation by TLC on PEI cellulose); format: biochemical
T1 construct: Human PDE7 was partially purified from the HUT-78 cell line; endogenous in cells
Protocol: The ability of the compounds of formula (I) to inhibit PDE7 is measured using an enzymatic assay based on the separation of radioactive cAMP (substrate of PDE7) from the radioactive 5′-AMP (product of the enzymatic reaction) by thin layer chromatography on polyethyleneimine (PEI) cellulose, after halting the enzymatic reaction. The 5′-AMP is extracted quantitatively from the PEI cellulose and its radioactivity is measured using a liquid scintillation counter.
The inhibitory activity of the compounds of formula (I) with regard to PDE7 is represented by the inhibition constant IC50, defined as the concentration of the compound (inhibitor) tested in the assay which makes it possible to reduce the enzymatic activity of PDE7 by 50%. The lower the IC50 values, the greater the inhibitory power of the compounds.
Human PDE7 was partially purified from the HUT-78 cell line by following a method analogous to that described by Bloom and Beavo (Proc. Natl. Acad. Sci. USA, (1996) 93, 14188-14192). The enzyme preparation obtained is stored at −80° C. in a buffer comprising 20 mM of Tris-HCl (pH 7.0), 5 mM of MgCl2, 4 mM of EDTA, 1 mM of dithiothreitol and 20% of glycerol. […] The Michaelis constant (Km) of PDE7 for cAMP, measured using the radiochemical assay described below, is 21 nM.
The compounds of formula (I) to be tested as PDE7 inhibitors are dissolved in DMSO at a concentration of 10 mM. These solutions are subsequently diluted in cascade in DMSO in order to obtain solutions with the desired concentrations. The latter are subsequently diluted to one-twentieth in the assay buffer to give 5% DMSO solutions. The latter are finally diluted to one-fifth in the enzymatic assay.
The assay is carried out in 1.5 ml Eppendorf tubes comprising 40 mM of Tris-HCl (pH 7.5), 15 mM of MgCl2, 1 mM of EGTA, 0.5 mg/ml of bovine serum albumin, […] of [^3H]-cAMP (corresponding to a cAMP concentration of between 15 and 25 nM), 10 μM of rolipram and PDE7 in a final volume of 100 μl. The assay is carried out in the absence (control sample) or in the presence (treated sample) of the compounds tested as PDE7 inhibitors. The final concentration of DMSO in the assay is 2%. The reaction is initiated by addition of enzyme and the samples are maintained at ambient temperature for 30 minutes. The enzymatic dilution is adjusted so as to obtain a degree of conversion of 10 to 15%. The enzymatic reaction is halted by immersion of the stoppered Eppendorf tubes in a water bath at 100° C. for 3 minutes. Blanks (reaction halted immediately after addition of the enzyme) are included in each experiment. The samples are subsequently centrifuged at 10 000×g for 1 minute and an aliquot portion of 10 μl of supernatant is deposited 2 cm from the bottom edge of a sheet of PEI cellulose on which 10 μg of cAMP and 10 μg of 5′-AMP have been deposited beforehand. In order to facilitate the migration and to make it easier to cut out the strips of PEI cellulose comprising the 5′-AMP, which take place subsequently, 18 migration lanes with a width of 1 cm are delimited per plate by scraping the cellulose with a spatula over a width of 1 mm. The plates are developed over their entire length with a 0.30 M solution of LiCl in water by ascending chromatography. The 5′-AMP (Rf=0.20) and the cAMP (Rf=0.47) are visualized under UV light at 254 nm. The strips of PEI cellulose comprising the 5′-AMP are cut out and the nucleotide is quantitatively extracted in counting flasks with 2 ml of a solution which is 16M in formic acid and 2M in ammonium formate in water (rotary stirrer for 15 min). After addition of 10 ml of scintillation liquid (OptiPhase HiSafe 3 from Perkin-Elmer/Wallac), the radioactivity is counted using a liquid scintillation counter (model 1414, Perkin-Elmer/Wallac). Each assay is carried out in duplicate. […]

[1] = test system: Human peripheral blood mononuclear cells (PBMNCs); assay: Inhibition of T cell proliferation: [3H]-thymidine incorporation in PBMNCs activated by anti-CD3 and anti-CD28; format: cell-based; settings: PBMC, 72 h + 8 h [3H]-thymidine, mean of the three experiments
Protocol: Human peripheral blood mononuclear cells (PBMNCs) were separated from the blood of healthy donors using a centrifuging gradient on a Ficoll-Paque™ Plus (GE Healthcare Bio-Sciences AB code 17-1440-03, Uppsala). A mixture of 5.0 ml of blood and 5.0 ml of phosphate buffered saline (PBS Gibco 14190) was deposited on 10.0 ml of Ficoll-Paque in a 50 ml Blue max tube (Becton Dickinson 352070) and centrifuged with 900 g for 30 min. The band of PBMNCs was withdrawn, washed in PBS and then centrifuged with 900 g for 10 minutes. Finally, the PBMNCs were suspended (2.5×10^5 cells/ml) in an RPMI 1640 complete medium+Glutamax (Gibco 61870) additivated with 10% of FCS, the complement of which has been heat inactivated, and with penicillin-streptomycin (Gibco 15140).
The PBMNCs were cultured in flat-bottomed 96-well plates, in a proportion of 0.5×10^5 cells/well in 200 μl of RPMI 1640 complete medium. The cells were activated by two monoclonal antibodies, one of anti-CD3 specificity, 20 ng/ml (Pharmingen 555329), and the other of anti-CD28 specificity, 200 ng/ml (Pharmingen 555725), in the presence of PDE7 inhibitors at five different concentrations, 10 μM, 3.3 μM, 1.1 μM, 0.36 μM and 0.12 μM, or of cyclosporin A, which acts as positive control of the halting of proliferation. […] After incubating for an additional 8 hours, the PBMNCs were collected on a Tomtec cell collector (Wallac) using a glass fibre filter (Wallac 1450-421), and incorporation of the [^3H]-thymidine in the nucleus of the cells was measured using a Microbeta 1450-Trilux (Wallac). The inhibition of the proliferation, expressed as percentage, was calculated using the following equation: 100−(cpm mean value of the cells in the presence of the compound/cpm mean value of the cells in the absence of the compound)×100. […]

PDE8 = PDE8 enzymatic assay equivalent to that described for PDE7; format: biochemical
CLL-PBMCs = settings: PBMCs of patients suffering from chronic lymphocytic leukaemia; cited from earlier work
PBMCs of normal subjects = settings: cited from earlier work
[2] = human PDE7 partially purified from HUT-78 cells, 10 μM rolipram present, read-out: IC50 (inhibition of PDE7)
[3] = table comparing PDE7 and PDE8, read-out: IC50 PDE7

T1 sequence (Q13946 whole entry): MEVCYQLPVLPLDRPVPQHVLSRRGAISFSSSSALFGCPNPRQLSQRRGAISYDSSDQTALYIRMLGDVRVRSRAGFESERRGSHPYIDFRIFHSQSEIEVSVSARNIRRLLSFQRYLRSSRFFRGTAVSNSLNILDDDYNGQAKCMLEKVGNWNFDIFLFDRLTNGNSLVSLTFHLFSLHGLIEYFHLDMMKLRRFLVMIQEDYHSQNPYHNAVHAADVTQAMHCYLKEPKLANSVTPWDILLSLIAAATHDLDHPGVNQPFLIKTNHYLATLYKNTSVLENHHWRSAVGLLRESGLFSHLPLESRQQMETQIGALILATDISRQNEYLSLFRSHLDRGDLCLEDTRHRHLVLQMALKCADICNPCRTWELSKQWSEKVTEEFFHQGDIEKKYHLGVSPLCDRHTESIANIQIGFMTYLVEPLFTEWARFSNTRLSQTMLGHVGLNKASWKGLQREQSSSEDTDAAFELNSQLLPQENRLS

Row | Compound | IC50 (Human PDE7; [2]) [nM] | IC50 [1] [nM] | further results
1 | COc1ccc(Cn2c(=O)c3cc(CNC(C)=O)ccc3n(C3CCN(C=O)C3)c2=O)cc1OC (stereo not drawn) [No. 77, N-{[3-(3,4-dimethoxybenzyl)-1-(1-formylpyrrolidin-3-yl)-2,4-dioxo-1,2,3,4-tetrahydroquinazolin-6-yl]methyl}acetamide] | 820 | – | –
2 | COc1ccc(Cn2c(=O)c3cc(OC(C)C#N)ccc3n(C3CCN(C=O)CC3)c2=O)cc1OC (stereo not drawn) [No. 1, 2-{[3-(3,4-dimethoxybenzyl)-1-(1-formylpiperidin-4-yl)-2,4-dioxo-1,2,3,4-tetrahydroquinazolin-6-yl]oxy}propanenitrile] | – | 400 | –
3 | Cc1ccc([N+](=O)[O-])cc1S(=O)(=O)N(C)C [BRL-50481] | – | – | apoptosis of CLL-PBMCs (CLL-PBMCs): induces in a dose-dependent way the apoptosis; effect on PBMCs of normal subjects (PBMCs of normal subjects): without effect
4 | COc1cc(Cn2c(=O)c3cc(OC(CF)CF)ccc3n(C3CCN(C=O)CC3)c2=O)ccc1OCC(=O)N1CCCCC1 [No. 251, 4-{6-[2-fluoro-1-(fluoromethyl)ethoxy]-3-[3-methoxy-4-(2-oxo-2-(piperidin-1-yl)ethoxy)benzyl]-2,4-dioxo-3,4-dihydroquinazolin-1(2H)-yl}piperidine-1-carbaldehyde] | – | – | IC50 (Human PDE7; [3]): 46 nM
5 | COc1ccc(Cn2c(=O)c3c(Cl)cc(Cl)cc3n(C3CCN(C=O)CC3)c2=O)cc1OC [No. 97, 4-[5,7-dichloro-3-(3,4-dimethoxybenzyl)-2,4-dioxo-3,4-dihydroquinazolin-1(2H)-yl]piperidine-1-carbaldehyde] | 61 | – | –
6 | N#Cc1cc(Cn2c(=O)c3cc(OC(CF)CF)ccc3n(C3CCN(C=O)CC3)c2=O)ccc1-c1ccccc1 [No. 294, 4-({6-[2-fluoro-1-(fluoromethyl)ethoxy]-1-(1-formylpiperidin-4-yl)-2,4-dioxo-1,4-dihydroquinazolin-3(2H)-yl}methyl)biphenyl-2-carbonitrile] | – | – | IC50 (PDE8): 15 nM; IC50 (Human PDE7; [3]): 37 nM

Now from value to molecule, other results behind:

Row | IC50 (Human PDE7; [2]) [nM] | Compound | IC50 [1] [nM] | further results
7 | 6.7 | COc1ccc(Cn2c(=O)c3cc(OC(F)F)ccc3n(C3CCN(C=O)CC3)c2=O)cc1OC [No. 111, 4-[6-(difluoromethoxy)-3-(3,4-dimethoxybenzyl)-2,4-dioxo-3,4-dihydroquinazolin-1(2H)-yl]piperidine-1-carbaldehyde] | – | –
8 | 39 | COc1ccc(Cn2c(=O)c3cc(OC(CF)CF)ccc3n(C3CCN(C=O)CC3)c2=O)cc1OC [No. 11, 4-[3-(3,4-dimethoxybenzyl)-6-[2-fluoro-1-(fluoromethyl)ethoxy]-2,4-dioxo-3,4-dihydroquinazolin-1(2H)-yl]piperidine-1-carbaldehyde] | 900 | IC50 (PDE8): 140 nM
9 | 15 | COc1ccc(Cn2c(=O)c3cc(OCC(F)F)ccc3n(C3CCN(C=O)CC3)c2=O)cc1OC [No. 16, 4-[6-(2,2-difluoroethoxy)-3-(3,4-dimethoxybenzyl)-2,4-dioxo-3,4-dihydroquinazolin-1(2H)-yl]piperidine-1-carbaldehyde] | 1300 | –
10 | 89 | COc1ccc(Cn2c(=O)c3cc(OCCO)ccc3n(C3CCN(C=O)CC3)c2=O)cc1OC [No. 72, 4-[3-(3,4-dimethoxybenzyl)-6-(2-hydroxyethoxy)-2,4-dioxo-3,4-dihydroquinazolin-1(2H)-yl]piperidine-1-carbaldehyde] | – | –
